{"source": "patent US20240116875A1", "about": "“RATIONAL DESIGN, OPTIMIZATION, AND BIOLOGICAL EVALUATION OF NOVEL MEK4 INHIBITORS AGAINST PANCREATIC ADENOCARCINOMA” (NORTHWESTERN UNIVERSITY, priority 2022, published 2024)", "key": {"[1]": {"experiment": "Log D study (BioDuro-Sundia)", "settings": "pH of 7.4"}, "[2]": {"experiment": "in vitro", "settings": "microsomes"}, "[3]": {"test_system": "HEK293T cells", "experiment": "cell proliferation (cell count after 72 hours), HEK293T", "type": "cell-based, human", "settings": "varying doses", "procedure": "After 72 hours, cells were trypsinized, counted, and the cell numbers were normalized against the DMSO treatment. Mean±SD. Graphs are representative of 3 biological replicates. One-way ANOVA; ns, non-significant **, p<0.01 ***, p<0.001.\nWe also examined the effects of these inhibitors on JNK phosphorylation and proliferation of two pancreatic cancer cell lines (CD18 and MiaPaCa2).\nHuman pancreatic cancer cell lines (CD18/HPAF-II and MiaPaCa2) and HEK293T cells were obtained from American Type Culture Collection. All cell lines were cultured according to the manufacturer's protocol. All media contained 10% Fetal Bovine Serum (FBS) and antibiotics (100 U/mL Penicillin and 100 μg/mL Streptomycin)."}, "[4]": {"test_system": "phospho-p38 MAPK in HEK293T cells", "experiment": "p38 MAPK phosphorylation, western blotting, HEK293T", "type": "cell-based, human", "settings": "anisomycin pretreatment, compound 100 μM, 5 hours", "procedure": "HSP90 was used as loading control. The blots are representative of at least three biological replicates.\nWe next evaluated the effects of our inhibitors on the phosphorylation activity and expression of MEK1/2, MEK3/6, and MEK7. […] We also evaluated the effects on p42/44 MAPK (ERK1/2), which functions downstream of MEK1/2.\n(§1) Whole cell extracts of cultured cells were prepared in radioimmunoprecipitation (RIPA) lysis buffer supplemented with phosphatase and protease inhibitors (Calbiochem). Protein concentration was determined by the bicinchoninic acid assay (BCA) (ThermoFisher) and separated by the SDS-PAGE technique. […] Secondary anti-mouse IgG (A4416) and anti-rabbit IgG (A6667) antibodies were purchased from Sigma-Aldrich and used a 1:4000 dilution. Images of blots were acquired on HyBlot ES Autoradiography Film (Thomas Scientific, Swedesboro, NJ, USA) following incubation with SuperSignal West Pico PLUS (ThermoFisher)."}, "[5]": {"test_system": "phospho-p42/44 MAPK in CD18 cells", "experiment": "p42/44 MAPK phosphorylation, western blotting, CD18", "type": "cell-based, human", "settings": "CD18, MEK4 inhibitor 10 μM, 5 hours", "procedure": "(§2) The effects of different treatments on phospho-p42/44 MAPK and total p42/44 MAPK expression levels were determined by western blotting. HSP90 was used as loading control. The blots are representative of at least three biological replicates.\nas §1"}, "[6]": {"test_system": "phospho-p42/44 MAPK in MiaPaCa2 cells", "experiment": "p42/44 MAPK phosphorylation, western blotting, MiaPaCa2", "type": "cell-based, human", "settings": "MiaPaCa2, MEK4 inhibitor 10 μM, 5 hours", "procedure": "as §2, §1"}, "[7]": {"biological_target": "CYP 2D6 (Homo sapiens, UniProt P10635)", "sequence (P10635 whole entry)": "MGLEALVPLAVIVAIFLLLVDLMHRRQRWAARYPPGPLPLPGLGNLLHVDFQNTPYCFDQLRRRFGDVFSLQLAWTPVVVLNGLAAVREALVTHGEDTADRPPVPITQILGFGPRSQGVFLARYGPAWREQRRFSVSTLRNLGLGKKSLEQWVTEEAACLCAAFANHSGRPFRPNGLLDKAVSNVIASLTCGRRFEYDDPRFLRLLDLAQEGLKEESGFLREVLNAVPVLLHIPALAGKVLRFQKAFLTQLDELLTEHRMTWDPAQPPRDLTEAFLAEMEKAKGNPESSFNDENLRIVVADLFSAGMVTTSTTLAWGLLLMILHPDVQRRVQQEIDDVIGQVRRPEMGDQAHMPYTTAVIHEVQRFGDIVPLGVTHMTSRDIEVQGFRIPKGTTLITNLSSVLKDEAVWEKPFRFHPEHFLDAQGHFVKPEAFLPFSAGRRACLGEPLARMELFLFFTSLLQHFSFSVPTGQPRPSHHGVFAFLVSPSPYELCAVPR", "experiment": "CYP inhibition, 2D6"}, "[8]": {"biological_target": "CYP 2C19 (Homo sapiens, UniProt P33261)", "sequence (P33261 whole entry)": "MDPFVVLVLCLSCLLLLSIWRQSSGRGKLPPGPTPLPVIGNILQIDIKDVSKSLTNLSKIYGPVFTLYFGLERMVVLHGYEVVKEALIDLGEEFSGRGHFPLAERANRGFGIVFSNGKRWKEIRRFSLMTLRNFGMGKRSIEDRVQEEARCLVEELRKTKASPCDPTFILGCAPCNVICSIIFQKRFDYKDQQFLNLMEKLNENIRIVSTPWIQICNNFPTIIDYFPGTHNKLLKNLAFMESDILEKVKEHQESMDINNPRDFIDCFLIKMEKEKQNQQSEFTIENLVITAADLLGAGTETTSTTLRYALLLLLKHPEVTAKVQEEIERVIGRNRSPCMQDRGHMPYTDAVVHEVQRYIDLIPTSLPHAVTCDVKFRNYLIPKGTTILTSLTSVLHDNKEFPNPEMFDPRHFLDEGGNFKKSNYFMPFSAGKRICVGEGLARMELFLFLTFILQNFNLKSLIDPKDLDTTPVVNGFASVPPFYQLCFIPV", "experiment": "CYP inhibition, 2C19"}}, "data": [{"smiles": "NC(=O)c1ccc(NS(=O)(=O)c2cccc(-c3n[nH]c4cc(F)ccc34)c2)cc1", "note": "[Compound 15o, 4-((3-(6-fluoro-1H-indazol-3-yl)phenyl)sulfonamido)benzamide]", "values": [{"measurement": "log D", "setting": "[1]", "result": 3.22}, {"measurement": "half-life", "setting": "[2]", "result": "> 3.08", "unit": "h"}, {"measurement": "stability in the microsome assay", "setting": "[2]", "result": "good stability"}, {"measurement": "cell proliferation", "setting": "[3]", "result": "decreased. HEK293T cell proliferation in a dose-dependent manner"}, {"measurement": "effect on anisomycin-induced p38 MAPK phosphorylation", "setting": "[4]", "result": "not affected"}, {"measurement": "effect on p42/44 MAPK phosphorylation", "setting": "[5]", "result": "increased p42/44 MAPK phosphorylation"}, {"measurement": "effect on p42/44 MAPK phosphorylation", "setting": "[6]", "result": "did not induce p42/44 MAPK phosphorylation"}, {"measurement": "inhibition of CYP 2D6", "setting": "[7]", "result": "low inhibition"}, {"measurement": "inhibition of CYP 2C19", "setting": "[8]", "result": "inhibited"}]}]}
